Source: PubChem BioAssay (NCI)
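In this assay, cells in 96-well plates receive the compound at five concentrations for 48 hours. Endpoints are linearly interpolated between the surrounding concentrations. GI50 = concentration required for 50% inhibition of growth. TGI is the concentration that stops growth completely.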

How the values were obtained:
Experiment in all cases: NCI anticancer screen, dose series, 48 h
UACC-62 melanoma = tested on: UACC-62 melanoma
SR leukemia = tested on: SR leukemia
HL-60(TB) leukemia = tested on: HL-60(TB) leukemia
SK-OV-3 ovarian = tested on: SK-OV-3 ovarian
SF-539 CNS = tested on: SF-539 CNS
MOLT-4 leukemia = tested on: MOLT-4 leukemia
SK-MEL-28 melanoma = tested on: SK-MEL-28 melanoma
OVCAR-8 ovarian = tested on: OVCAR-8 ovarian
M14 melanoma = tested on: M14 melanoma
MDA-MB-231 breast = tested on: MDA-MB-231 breast

Structure (SMILES) | TGI (UACC-62 melanoma) | TGI (SR leukemia) | TGI (HL-60(TB) leukemia) | TGI (SK-OV-3 ovarian) | TGI (SF-539 CNS) | TGI (MOLT-4 leukemia) | TGI (SK-MEL-28 melanoma) | TGI (OVCAR-8 ovarian) | TGI (M14 melanoma) | TGI (MDA-MB-231 breast) | GI50 (MDA-MB-231 breast) | GI50 (UACC-62 melanoma) | GI50 (SR leukemia) | GI50 (SK-OV-3 ovarian) | GI50 (SF-539 CNS) | GI50 (MOLT-4 leukemia) | GI50 (SK-MEL-28 melanoma) | GI50 (OVCAR-8 ovarian) | GI50 (M14 melanoma) | GI50 (HL-60(TB) leukemia)
Brc1ccc2c(c1)C1(c3cc(Br)ccc3-2)c2cc(Br)ccc2-c2ccc(Br)cc21 | > 100 µM | > 100 µM | > 100 µM | > 100 µM | > 100 µM | > 100 µM | > 100 µM | > 100 µM | > 100 µM |  |  |  |  |  |  |  |  |  |  | 
O=C(CCCCCCCCCCc1ccccc1)c1c(O)cccc1O | 36.2 µM | 63.4 µM | 71.6 µM | > 100 µM | 34.8 µM | 61.8 µM | 40.1 µM | 38.1 µM | 35.6 µM |  |  |  |  |  |  |  |  |  |  | 
CC(CC(=O)O)(CC(=O)O)C(=O)O | > 100 µM | > 100 µM |  | > 100 µM | > 100 µM | > 100 µM | > 100 µM | > 100 µM | > 100 µM | > 100 µM |  |  |  |  |  |  |  |  |  | 
O=C1OCC(C(=O)c2cccc(O)c2)C1=O (configuration not stated) | > 100 µM |  |  | > 100 µM | > 100 µM |  | > 100 µM | > 100 µM | > 100 µM |  |  |  |  |  |  |  |  |  |  | 
COc1cc2ccn3c4cc(OC)c(OC)cc4cc3c2cc1OC | > 100 µM | > 100 µM | > 100 µM | > 100 µM |  | > 100 µM | > 100 µM | > 100 µM | > 100 µM |  |  |  |  |  |  |  |  |  |  | 
COc1c(O)c(OC)c(C(=O)/C=C/c2ccccc2)c(O)c1OC |  |  | > 100 µM | > 100 µM | 86.7 µM | > 100 µM | > 100 µM | 38.1 µM | > 100 µM | 72 µM |  |  |  |  |  |  |  |  |  | 
Cn1c(=O)c2c3oc(=O)cc(O)c3c(=O)n3c4ccccc4n(c1=O)c23 | > 100 µM | > 100 µM | 78.7 µM | > 100 µM | > 100 µM | > 100 µM |  | > 100 µM | > 100 µM |  |  |  |  |  |  |  |  |  |  | 
O=C(CCCCCCCCC(=O)OCC1OC(n2cnc3c(=O)[nH]cnc32)C(O)C1O)OCC1OC(n2cnc3c(=O)[nH]cnc32)C(O)C1O (configuration not stated) | > 100 µM |  | > 100 µM | > 100 µM | > 100 µM | > 100 µM | > 100 µM | > 100 µM | > 100 µM |  |  |  |  |  |  |  |  |  |  | 
CC(=O)NC1C(OCc2ccccc2)OC(COC(=O)CCCCCCCCCCNC(=O)c2cccc3c(=O)c4ccccc4[nH]c23)C(O)C1OC(C)C(=O)NC(C)C(=O)NC(CCC(N)=O)C(N)=O (configuration not stated) | > 100 µM | > 100 µM | > 100 µM | > 100 µM | > 100 µM | > 100 µM | > 100 µM | > 100 µM | > 100 µM |  |  |  |  |  |  |  |  |  |  | 
N#Cc1c2c(c(N=[N+]=[N-])n3c1nc1ccccc13)CCCC2 |  | > 100 µM | 8.6 µM | 3.64 µM | 3.66 µM | 5.37 µM | 14 µM | 3.09 µM | 3.48 µM |  |  |  |  |  |  |  |  |  |  | 
O=c1oc(-c2ccc(O)c(O)c2)cc2cc(O)cc(O)c12 | > 100 µM | > 100 µM |  | > 100 µM | 91.5 µM | > 100 µM | > 100 µM | > 100 µM | 93.9 µM | > 100 µM | 44.7 µM | 33.8 µM | 8.26 µM | > 100 µM | 26.7 µM | 22.4 µM | 39.5 µM | 42.1 µM | 33.2 µM | 
COC(=O)/C(=N\NC(=O)c1ccccc1O)C(C#N)c1ccc(Cl)cc1 (configuration not stated) | > 100 µM | > 100 µM | > 100 µM |  | > 100 µM | > 100 µM | > 100 µM | > 100 µM | > 100 µM |  |  |  |  |  |  |  |  |  |  | 
S=C(Nc1ccccc1)Nc1[nH]c(=S)sc1-c1nc2ccccc2[nH]1 | > 100 µM |  | > 100 µM | 80.9 µM | 74.3 µM | > 100 µM | > 100 µM | > 100 µM | > 100 µM |  |  |  |  |  |  |  |  |  |  | 
COC(=O)/C(C#N)=C1\N=NNN1CCCN1CCOCC1 | > 100 µM |  |  | > 100 µM | > 100 µM | > 100 µM | > 100 µM | > 100 µM | > 100 µM |  |  |  |  |  |  |  |  |  |  | 
c1ccc(SCCCC(Sc2ccccc2)Sc2ccccc2)cc1 | > 100 µM | > 100 µM | > 100 µM | > 100 µM | > 100 µM | > 100 µM | > 100 µM | > 100 µM | > 100 µM |  |  |  |  |  |  |  |  |  |  | 
NC(Cc1nn[nH]n1)C(=O)O (configuration not stated) | > 100 µM | > 100 µM |  | > 100 µM | > 100 µM | > 100 µM | > 100 µM | > 100 µM | > 100 µM | > 100 µM |  |  |  |  |  |  |  |  |  | 
CC1=CC2=C(C)C3(CC3)[C@@](C)(O)C(=O)C2=C1 | 0.44 µM | > 1 µM | 0.587 µM | 0.799 µM | 0.47 µM | > 1 µM | 0.394 µM | 0.706 µM | 0.393 µM |  |  |  |  |  |  |  |  |  |  | 
O=c1c2ccccc2nc(-c2ccccc2)n1NCC1(O)OCC(O)C(O)C1O (configuration not stated) | > 100 µM |  | > 100 µM | > 100 µM | > 100 µM | > 100 µM | > 100 µM | > 100 µM | > 100 µM |  |  |  |  |  |  |  |  |  |  | 
CN1CC2(CCCCC2)C(O)C12C=CCCC2 (configuration not stated) | > 100 µM |  | > 100 µM | > 100 µM | > 100 µM | > 100 µM | > 100 µM | > 100 µM | > 100 µM |  |  |  |  |  |  |  |  |  |  | 
CCOC(=O)c1cnc2[nH]c(=O)c3ccccc3n2c1=O | > 100 µM | > 100 µM | > 100 µM | > 100 µM | > 100 µM | > 100 µM | > 100 µM | > 100 µM | > 100 µM |  |  |  |  |  |  |  |  |  |  | 
Cc1nnc2n1N=C(CC(=O)c1ccc(O)cc1O)CN2N | > 100 µM |  | > 100 µM | > 100 µM | > 100 µM |  | > 100 µM |  | > 100 µM |  |  |  |  |  |  |  |  |  |  | 
CC(C)OP(=O)(CP(=O)(OC(C)C)OC(C)C)OC(C)C.[CH3][Sn]([Br])([Br])[Br] | > 100 µM |  | > 100 µM | > 100 µM | > 100 µM | > 100 µM | > 100 µM | > 100 µM |  |  |  | > 100 µM |  | > 100 µM | > 100 µM | > 100 µM | > 100 µM | > 100 µM |  | > 100 µM
O=C(O)c1cc(Cl)cc(NC(=O)C(Cl)Cl)c1Cl | > 100 µM |  | > 100 µM | > 100 µM | > 100 µM | > 100 µM | > 100 µM | > 100 µM | > 100 µM |  |  |  |  |  |  |  |  |  |  | 
COC(=O)c1c(C)oc2ccc(OC(C)=O)cc12 | > 100 µM | > 100 µM | > 100 µM | > 100 µM | > 100 µM | > 100 µM | > 100 µM | > 100 µM | > 100 µM |  |  |  |  |  |  |  |  |  |  | 
